Data from patent US20210100832A1, “INJECTABLE COMPOSITION FOR THE TREATMENT OF MUSCULOSKELETAL DISORDERS AND METHODS OF USE THEREOF” (Patchor Ltd., priority 2019, published 2021).

Tests used:
[1] = system: wistar rats with knee osteoarthritis (ACLT with MMx); assay: Weight bearing (incapacitance tester) in rat knee OA induced by ACLT with medial meniscectomy; format: in vivo; conditions: 150 microliters into the knee; 20 days post treatment (day 34); *p=0.0012, **p=0.0458; FIG. 2
Description: Induction of knee osteoarthritis was performed by an anterior cruciate ligament transaction (ACLT) with medial meniscectomy (MMx) on one leg of wistar rats while the contralateral knee served as self-control. After the procedure the animals were divided into three experimental groups of 7 animals per group. Control group was treated by injection of 150 microliters of 1% HA into the knee. Experimental groups were treated by injection of 150 microliters of either GR or GR-HA.
Formulation for dosing of control group was taken from commercial HA-1% viscosupplementation injection (Arthrease 1% sodium hyaluronate Lot R10008G, produced by Bio-Technology General). GR+HA was prepared by Patchor's standard procedures, as described in International Patent Publication No. WO 2009/150651 A1, of mixing HA with GM or with GR. All injections volume was 150 microliters. The positive control HA group was treated immediately post surgery and again at day 14 post surgery, and the HA−CM−GM was treated only once at day 14 post surgery. The experimental outcome was assessed by measuring weight bearing on the OA leg using an incapacitance tester.

[2] = system: wistar rats with knee osteoarthritis (ACLT with MMx); assay: Von Frey filament mechanical nociceptive threshold test in rat knee OA; format: in vivo
Description: As described in Example 3, OA was induced on one leg of wistar rats while the contralateral knee served as self-control. Thereafter, 14 rats were divided into two experimental groups. 7 were treated by injection of HA to the knee, as a positive control, and 7 were injected with GR. Injection volume was 150 microliters.
The experimental outcome was assessed using the Von Frey filament method for detection of mechanical nociceptive threshold test.

galectin-3 = galectin-3 (Homo sapiens, UniProt P17931); conditions: reference [8]; cited from earlier work
Chain of galectin-3 (P17931 whole entry, species assumed): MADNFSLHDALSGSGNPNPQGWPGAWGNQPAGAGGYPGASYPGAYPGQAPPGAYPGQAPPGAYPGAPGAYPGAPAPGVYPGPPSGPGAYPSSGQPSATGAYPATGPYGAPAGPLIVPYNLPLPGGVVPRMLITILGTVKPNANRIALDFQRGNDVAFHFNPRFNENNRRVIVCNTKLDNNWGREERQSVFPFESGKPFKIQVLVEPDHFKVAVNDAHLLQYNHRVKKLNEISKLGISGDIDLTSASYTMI

Row | Substance | weight bearing ability on the operated OA leg compared to HA group [1] | pain response compared to control HA (Von Frey) ([2]; 150 microliters into OA knee, FIG. 3) | nociceptive threshold of OA leg versus control HA ([2]; 1 day post treatment, p=0.02) | nociceptive threshold of OA leg versus control HA ([2]; 19 days post treatment, p=0.007) | nociceptive reaction in the healthy legs, GR versus HA group ([2]; healthy contralateral legs, data not shown) | inhibition of galectin-3 (galectin-3)
1 | Galactoarabino-Rhamnogalacturonan [GR] | significant increase in weight bearing ability | significantly reduced pain response | significant reduction in nociceptive threshold | significant reduction in nociceptive threshold | No difference in nociceptive reaction | potent inhibitors of galectin-3
2 | Galactomannan [GM] |  |  |  |  |  | potent inhibitors of galectin-3
